Tested on: U937 cells
Experiment: Inhibition of TNF-α-induced programmed necrosis of U937 cells (CellTiter-Glo)
Format: cell-based
Details: U-937, human TNF-α + Q-VD-Oph, 48 hours
Experimental: The U937 cell line used in the following test examples was from ATCC, number: CRL-1593.2, batch number: 63479999, culture medium: RPMI-1640+10% FBS.
(§1) The reagents used, suppliers and product numbers of the reagents were as follows: RPMI-1640, Gibco, 11875-093; FBS, Gibco, 10099-141; Trypsin-EDTA, Gibco, 25200-072; PS, Gibco, 15140-122; CellTiter Glo , Progema, G7573; DMSO, VWR AMRESCO, 0231-500ML; TNF-α protein (human, recombinant), Peprotech, 300-01A; Q-VD-Oph, MCE, HY-12305; V-shaped bottom plate, Corning, 3894; 384-well low-flange white flat-bottom microplate, Corning, 3570; RIPK1, Eurofins, 16-022; MOPS, BDH, 441644J; EDTA, Sigma, E5134; Myelin basic protein, Sigma, M1891-25.00 MG; Magnesium acetate, Merck, DU008026; ATP (non-radioactive label), Sigma, A-7699; ATP (radioactive label), Hartmann Analytic, DU008054; Phosphoric acid, Metlab, DU003000; Z-VAD: Shanghai Yuang Chemical Industry, YA02401.
The compounds to be tested were dissolved in DMSO and diluted with DMSO into a series of concentration gradients. 5000 U937 cells/well were seeded in a 384-well white plate. Compounds of corresponding concentrations were added to each well and mixed evenly with the cells. At the same time, human TNF-a and Q-VD-Oph were added to induce programmed necrosis of the cells. The cells were placed at 37° C., 5% CO2 incubator for 48 hours. CellTiter-Glo reagent was used for detection, and the chemiluminescence reading was detected using a microplate reader after sufficient lysis reaction. The test results were calculated using the formula SR (%)=(RLU compound−RLU blank)/(RLU high control−RLU blank)×100%. The survival rate and the final concentration of the corresponding compound were drawn into a curve and fitted using four parameters. Inhibitory IC50 on TNF-α-induced cell necrosis of the compounds were calculated.

Row | Structure (SMILES) | IC50 [nM]
1 | CC(C(F)F)N1CCc2c(C(F)(F)F)nn(Cc3c(F)cccc3F)c2C1=O (centres unmarked) [Compound Z17, 1-(2,6-difluorobenzyl)-6-(1,1-difluoropropan-2-yl)-3-(trifluoromethyl)-1,4,5,6-tetrahydro-7H-pyrazolo[3,4-c]pyridin-7-one] | 1820
2 | CC(C(F)F)N1CCc2c(nn(Cc3cc(F)cc(F)c3)c2Cl)C1=O (centres unmarked) [Compound Z14, 3-chloro-2-(3,5-difluorobenzyl)-6-(1,1-difluoropropan-2-yl)-2,4,5,6-tetrahydro-7H-pyrazolo[3,4-c]pyridin-7-one] | 982
3 | O=C1c2nn(Cc3cc(F)ccc3F)c(Cl)c2CCN1CC(F)F [Compound Z5, 3-chloro-2-(2,5-difluorobenzyl)-6-(2,2-difluoroethyl)-2,4,5,6-tetrahydro-7H-pyrazolo[3,4-c]pyridin-7-one] | 205
4 | CC(C(F)F)N1CCc2c(nn(Cc3cc(F)c(F)cc3F)c2Cl)C1=O (centres unmarked) [Compound Z21, 3-chloro-6-(1,1-difluoropropan-2-yl)-2-(2,4,5-trifluorobenzyl)-2,4,5,6-tetrahydro-7H-pyrazolo[3,4-c]pyridin-7-one] | 534
5 | O=C1c2nn(Cc3c(F)cccc3F)c(Cl)c2CCN1CC1(F)CC1 [Compound Z11, 3-chloro-2-(2,6-difluorobenzyl)-6-((1-fluorocyclopropyl)methyl)-2,4,5,6-tetrahydro-7H-pyrazolo[3,4-c]pyridin-7-one] | 1600
6 | N#CCC1(N2CCc3c(nn(Cc4c(F)cccc4F)c3Cl)C2=O)CC1 [Compound Z7, 2-(1-(3-chloro-2-(2,6-difluorobenzyl)-7-oxo-2,4,5,7-tetrahydro-6H-pyrazolo[3,4-c]pyridin-6-yl)cyclopropyl)acetonitrile] | 1830
7 | CC(C(F)F)N1CCc2c(nn(Cc3ccccc3OC(F)(F)F)c2Cl)C1=O (centres unmarked) [Compound Z12, 3-chloro-6-(1,1-difluoropropan-2-yl)-2-(2-(trifluoromethoxy)benzyl)-2,4,5,6-tetrahydro-7H-pyrazolo[3,4-c]pyridin-7-one] | 1380
8 | O=C1c2nn(Cc3c(F)cccc3F)c(Cl)c2CCN1CC(F)F [Compound Z3, 3-chloro-2-(2,6-difluorobenzyl)-6-(2,2-difluoroethyl)-2,4,5,6-tetrahydro-7H-pyrazolo[3,4-c]pyridin-7-one] | 129
9 | CC(C(F)F)N1CCc2c(nn(Cc3ccccc3F)c2Cl)C1=O (centres unmarked) [Compound Z19, 3-chloro-6-(1,1-difluoropropan-2-yl)-2-(2-fluorobenzyl)-2,4,5,6-tetrahydro-7H-pyrazolo[3,4-c]pyridin-7-one] | 168
10 | CC(C(F)F)N1CCc2c(nn(Cc3c(F)cccc3F)c2Br)C1=O (centres unmarked) [Compound Z24, 3-bromo-2-(2,6-difluorobenzyl)-6-(1,1-difluoropropan-2-yl)-2,4,5,6-tetrahydro-7H-pyrazolo[3,4-c]pyridin-7-one] | 48.9
11 | N#CCCN1CCc2c(nn(Cc3c(F)cccc3F)c2Cl)C1=O [Compound Z4, 3-(3-chloro-2-(2,6-difluorobenzyl)-7-oxo-2,4,5,7-tetrahydro-6H-pyrazolo[3,4-c]pyridine-6-yl)propionitrile] | 1360
12 | CC(COc1ccc(C#N)cn1)N1CCc2c(nn(Cc3ccccc3)c2Cl)C1=O (centres unmarked) [Compound Z16, 6-(2-(2-benzyl-3-chloro-7-oxo-2,4,5,7-tetrahydro-6H-pyrazolo[3,4-c]pyridine-6-yl)propoxy)nicotinonitrile] | 2950
13 | O=C1c2nn(Cc3c(F)cccc3F)c(Cl)c2CCN1C(C(F)F)C1CC1 (centres unmarked) [Compound Z13, 3-chloro-6-(1-cyclopropyl-2,2-difluoroethyl)-2-(2,6-difluorobenzyl)-2,4,5,6-tetrahydro-7H-pyrazolo[3,4-c]pyridin-7-one] | 120
14 | CC(C(F)F)N1CCc2c(nn(Cc3ccc(F)cc3F)c2Cl)C1=O (centres unmarked) [Compound Z18, 3-chloro-2-(2,4-difluorobenzyl)-6-(1,1-difluoropropan-2-yl)-2,4,5,6-tetrahydro-7H-pyrazolo[3,4-c]pyridin-7-one] | 194
15 | C[C@H](C(F)F)N1CCc2c(nn(Cc3c(F)cccc3F)c2Br)C1=O (single isomer, unassigned) [Compound Z24-1] | 119
16 | O=C1c2nn(Cc3ccccc3Cl)c(Cl)c2CCN1CC(F)F [Compound Z8, 3-chloro-2-(2-chlorobenzyl)-6-(2,2-difluoroethyl)-2,4,5,6-tetrahydro-7H-pyrazolo[3,4-c]pyridin-7-one] | 253
17 | CC1(C)CC(N2CCc3c(nn(Cc4c(F)cccc4F)c3Cl)C2=O)CCO1 (centres unmarked) [Compound Z25, 3-chloro-2-(2,6-difluorobenzyl)-6-(2,2-dimethyltetrahydro-2H-pyran-4-yl)-2,4,5,6-tetrahydro-7H-pyrazolo[3,4-c]pyridin-7-one] | 464
18 | CC(C(F)F)N1CCc2c(nn(Cc3c(F)cc(F)cc3F)c2Cl)C1=O (centres unmarked) [Compound Z22, 3-chloro-6-(1,1-difluoropropan-2-yl)-2-(2,4,6-trifluorobenzyl)-2,4,5,6-tetrahydro-7H-pyrazolo[3,4-c]pyridin-7-one] | 222
19 | O=C1c2nn(Cc3ccccc3)c(Cl)c2CCN1CC(F)F [Compound Z1, 2-benzyl-3-chloro-6-(2,2-difluoroethyl)-2,4,5,6-tetrahydro-7H-pyrazolo[3,4-c]pyridine-7-one] | 461
20 | C[C@@H](C(F)F)N1CCc2c(nn(Cc3c(F)cccc3F)c2Cl)C1=O (single isomer, unassigned) [Compound Z9-1] | 256
21 | CCC(C(F)F)N1CCc2c(nn(Cc3c(F)cccc3F)c2Cl)C1=O (centres unmarked) [Compound Z15, 3-chloro-2-(2,6-difluorobenzyl)-6-(1,1-difluorobutan-2-yl)-2,4,5,6-tetrahydro-7H-pyrazolo[3,4-c]pyridin-7-one] | 127
22 | O=C1c2nn(Cc3c(F)cccc3F)c(Cl)c2CCN1C1CCOCC1 [Compound Z23, 3-chloro-2-(2,6-difluorobenzyl)-6-(tetrahydro-2H-pyran-4-yl)-2,4,5,6-tetrahydro-7H-pyrazolo[3,4-c]pyridin-7-one] | 311
23 | O=C1c2nn(Cc3c(F)ccc(F)c3F)c(Cl)c2CCN1CC(F)F [Compound Z6, 3-chloro-6-(2,2-difluoroethyl)-2-(2,3,6-trifluorobenzyl)-2,4,5,6-tetrahydro-7H-pyrazolo[3,4-c]pyridin-7-one] | 482
24 | CC(=O)N1CCc2c(nn(Cc3c(F)cccc3F)c2Cl)C1=O [Compound Z26, 6-acetyl-3-chloro-2-(2,6-difluorobenzyl)-2,4,5,6-tetrahydro-7H-pyrazolo[3,4-c]pyridin-7-one] | 361
25 | O=C1c2nn(Cc3c(F)cccc3F)c(Cl)c2CCN1C1(C(F)F)CC1 [Compound Z10, 3-chloro-2-(2,6-difluorobenzyl)-6-(1-(difluoromethyl)cyclopropyl)-2,4,5,6-tetrahydro-7H-pyrazolo[3,4-c]pyridin-7-one] | 676
26 | CCC(=O)N1CCc2c(nn(Cc3c(F)cccc3F)c2Cl)C1=O [Compound Z20, 3-chloro-2-(2,6-difluorobenzyl)-6-propionyl-2,4,5,6-tetrahydro-7H-pyrazolo[3,4-c]pyridin-7-one] | 300

Target: RIPK1 (Homo sapiens (Human), UniProt Q13546)
Sequence (Q13546 whole entry): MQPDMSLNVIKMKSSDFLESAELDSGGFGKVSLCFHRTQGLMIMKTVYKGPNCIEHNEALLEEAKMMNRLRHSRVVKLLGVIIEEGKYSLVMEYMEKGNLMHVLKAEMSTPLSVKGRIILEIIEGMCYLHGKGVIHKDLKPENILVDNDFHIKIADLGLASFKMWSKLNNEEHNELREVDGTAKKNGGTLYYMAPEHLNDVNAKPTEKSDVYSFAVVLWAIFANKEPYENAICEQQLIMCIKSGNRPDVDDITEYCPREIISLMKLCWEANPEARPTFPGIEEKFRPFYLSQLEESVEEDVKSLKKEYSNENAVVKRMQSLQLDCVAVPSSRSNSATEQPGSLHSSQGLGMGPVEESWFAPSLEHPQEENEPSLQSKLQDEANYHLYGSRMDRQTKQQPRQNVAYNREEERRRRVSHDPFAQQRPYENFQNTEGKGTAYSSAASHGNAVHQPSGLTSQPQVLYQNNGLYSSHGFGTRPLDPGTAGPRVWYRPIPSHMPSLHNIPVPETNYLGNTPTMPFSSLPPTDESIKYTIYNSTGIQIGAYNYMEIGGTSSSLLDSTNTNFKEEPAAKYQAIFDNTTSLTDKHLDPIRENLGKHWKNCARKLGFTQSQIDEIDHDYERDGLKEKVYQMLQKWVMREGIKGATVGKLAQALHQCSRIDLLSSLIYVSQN
Experiment: Inhibitory activity against RIPK1 enzyme (33P-ATP, MBP substrate)
Format: biochemical
Details: 36 nM RIPK1, 0.33 mg/ml MBP, 155 μM ATP, 2 hours, room temperature
Experimental: as §1
The compound to be tested was dissolved in DMSO to prepare a 10 mM stock solution, diluted 3.16 times with DMSO into a series of concentration gradients, and then MOPS pH 7.0 buffer solution was used to dilute 50 times to prepare a working solution, and mixed well with 36 nM RIPK1 (final concentration), 0.33 mg/ml substrate MBP. Afterwards, 10 mM magnesium ions and 155 μM phosphorus 33 isotope-labeled ATP were added to react, The final concentration of DMSO was 2%. After the reaction was proceeded at room temperature for 2 hours, phosphoric acid was added to terminate. The final reaction system was processed and detected using a liquid scintillation counter. After the test results are subtracted from the blank control and compared with the reading value of the control group to convert to the activity percentage, which was plotted as a curve with the final concentration of the corresponding compound, and four-parameter fitting was used to obtain the IC50 of the compound that inhibits RIPK1 enzyme activity.

Row | Structure (SMILES) | IC50 [nM]
27 | O=C1c2nn(Cc3c(F)cccc3F)c(Cl)c2CCN1CC(F)F [Compound Z3, 3-chloro-2-(2,6-difluorobenzyl)-6-(2,2-difluoroethyl)-2,4,5,6-tetrahydro-7H-pyrazolo[3,4-c]pyridin-7-one] | 48
28 | O=C1c2nn(Cc3ccccc3)c(Cl)c2CCCN1CC(F)F [Compound Z42] | 184
29 | O=C1c2nn(Cc3ccccc3)c(Cl)c2CCN1CC(F)F [Compound Z1, 2-benzyl-3-chloro-6-(2,2-difluoroethyl)-2,4,5,6-tetrahydro-7H-pyrazolo[3,4-c]pyridine-7-one] | 65

— patent publication US20240294523A1, “HETEROCYCLIC LACTAM COMPOUND, AND PREPARATION METHOD THEREFOR AND PHARMACEUTICAL USE THEREOF” (Genfleet Therapeutics (Shanghai) Inc., priority 2021, published 2024)
